Assays:
[1] = tested on: Sporosarcina pasteurii—CIP 66.21 Pasteur; assay: Degree of attachment in sand columns, chicory and/or divalent ion salt added before injection (Example 4); type: cell-based; conditions: 10 mM Ca(NO3)2 added to the culture medium; 20° C.
Procedure: The columns were prepared in accordance with Example 3.
The bacteria (Sporosarcina pasteurii—CIP 66.21 Pasteur) were cultured in a culture medium (1 L of laboratory water) containing 10 g of yeast extract, 3 g of NaCl, 2.4 g of urea, 0.1 g of MgCl2 and 0.0128 g of NiCl2. When the bacteria are at the end of the exponential phase, the following are added to the culture medium: • either a source of calcium (10 mM Ca(NO3)2); • or chicory in a proportion of 4 or 8 g/L; • or a source of calcium (10 mM Ca(NO3)2) and chicory in a proportion of 4 or 8 g/L.
The whole was left to stir for one hour before being injected into the columns.
The injection conditions are identical to those of Example 3. All the experiments were carried out at 20° C.
The cumulative column inlet and outlet OD values are compared and expressed in the form of percentage loss of OD, which represents the degree of attachment of the bacteria in the column. FIG. 5 represents the degrees of attachment of the bacteria stimulated by the addition of chicory, of calcium salt or of both to the culture medium before injection.
The protocol is identical to that of Example 4.1, with the calcium ions (Ca(NO3)2) being replaced with magnesium ions (Mg(NO3)2).

[2] = tested on: Sporosarcina pasteurri—CIP 66.21 Pasteur; assay: Degree of attachment of bacteria to Fontainebleau sand columns, chicory in the culture medium (Example 3); type: cell-based, Sporosarcina pasteurii; conditions: media with versus without chicory
Procedure: The chicory used is powdered extract of freeze-dried chicory, derived from the root of Cichorium intibus and sold under the trade name “Chicorée soluble Leroux”. For this, two tests were carried out in parallel on columns:
The columns were made up of a PVC tube 63 mm in diameter and 200 mm in height, positioned between two PVC bases. One centimeter of filter sand was placed at the two ends and the whole of the column was made up with Fontainebleau sand tamped down under water by tapping. The Fontainebleau sand is the NE34-grade sand from SIFRACO. The injections were carried out from top to bottom. […]
Monitoring of the OD at the column outlet makes it possible to know the degree of attachment of the bacteria to the Fontainebleau sand. A calibration OD measurement was carried out beforehand on each of the media from which the bacteria were extracted in order to be free of differences in reading related to the medium itself. […]
Since the column porosity volume is 250 mL, the detection of the first bacteria at the column outlet is carried out after having injected 250 mL of culture medium. The graphic representation of the cumulative OD at the column inlet and at the column outlet makes it possible to readily visualize the degree of attachment of the bacteria to the granular substrate. […] The outlet ODs are also measured every minute. […]

[3] = tested on: S. pasteurii (CIP 66.21 Pasteur); assay: Screening for sugars that can be assimilated, API strips (API 20 E and API 50CH); type: cell-based, Sporosarcina pasteurii; conditions: API strip analysis
Source text: The first step was to carry out a screening of the various sugars that exist, in order to identify that or those which is (are) assimilable and which stimulate EPS synthesis in Sporosarcina pasteurii, preferably without inhibiting urease synthesis.
For this, two types of API strips were used: API 20 E and API 50CH. These tests are in the form of microtubes containing dehydrated substrates and which are inoculated with a bacterial suspension.

Sporosarcina pasteurii = assay: Culture with inulin/chicory replacing part of the yeast extract: attachment to glassware, growth, enzymatic activity; type: cell-based
Source text: In order to determine the amount of inulin necessary in order to act on the synthesis of urease and on the production of EPS in Sporosarcina pasteurii, a part of the nitrogenous carbon source (yeast extract) was replaced with chicory.

Compound | Degree of attachment (%) [1] | bacterial growth (inlet OD) [2] | carbon source that can be assimilated by Sporosarcina pasteurii [3] | adhesion of the bacteria to the laboratory glassware through the production of EPS (Sporosarcina pasteurii) | growth of the bacteria (Sporosarcina pasteurii)
O=[N+]([O-])[O-].O=[N+]([O-])[O-].[Ca+2] [Ca(NO3)2] | 49.5% | – | – | – | –
Inulin | – | greater | can be assimilated | demonstrated adhesion | more rapid
